The structures appear in SMILES notation.

In general, IC50 refers to the concentration at which inhibition is half-maximal. The inhibition is the relative decrease from the control value, in per cent. Broadly, the pKa is the negative logarithm of the acid dissociation constant.

The first data set addresses Aldo-keto reductase family 1 member B1 (Bos taurus, UniProt P16116). Put plainly: Inhibition of bovine lens ALR2 assessed as reduction of D,L-glyceraldehyde by spectrophotometry.
Conditions: not given
On the set-up: species or system Lens of camera-type eye.
As to `O=C(CN1C(=O)S/C(=C\c2ccc(-c3ccccc3)cc2)C1=O)NO`, the IC50 came to 20.3 µM.

As to `O=C(CN1C(=O)S/C(=C\c2cccc(Oc3ccccc3)c2)C1=O)NO`, the IC50 came to 12.7 µM.

In the case of `O=C(CN1C(=O)S/C(=C\c2ccc(Oc3ccccc3)cc2)C1=O)NO`, the IC50 is 3.67 µM.

Regarding `O=C(CN1C(=O)S/C(=C\c2cccc3ccccc23)C1=O)NO`, the IC50 amounted to 4.2 µM.

Regarding `O=C(CN1C(=O)S/C(=C\c2ccc(O)cc2)C1=O)NO`, the IC50 amounted to 1.79 µM.

Turning to `NC(=O)CN1C(=O)S/C(=C\c2ccc(O)cc2)C1=O`, the IC50 turned out to be 6.52 µM.

With `O=C(CN1C(=O)S/C(=C\c2ccc(OCc3ccccc3)cc2)C1=O)NO`, the IC50 was 7.34 µM.

In the next data set the target is Aldo-keto reductase family 1 member B1 (Bos taurus) (UniProt P16116). Put plainly: Inhibition of bovine lens ALR2 at 12.5 uM assessed as reduction of D,L-glyceraldehyde by spectrophotometry. Format: tissue-based. The note with it: Lens of camera-type eye.
Consider `COc1cc(/C=C2\SC(=O)N(CC(N)=O)C2=O)ccc1O`, for which the inhibition was 31%.

With `NC(=O)CN1C(=O)S/C(=C\c2cccc(O)c2)C1=O`, the inhibition was found to be 16%.

As for `NC(=O)CN1C(=O)S/C(=C\c2ccc(-c3ccccc3)cc2)C1=O`, the inhibition worked out at 18%.

`NC(=O)CN1C(=O)S/C(=C\c2ccc3ccccc3c2)C1=O`: the inhibition came out at 3%.

For the compound `NC(=O)CN1C(=O)S/C(=C\c2cccc(Oc3ccccc3)c2)C1=O`, the inhibition was found to be 8%.

On to `COc1cccc(/C=C2\SC(=O)N(CC(N)=O)C2=O)c1`, for which the inhibition is 10%.

As for `NC(=O)CN1C(=O)S/C(=C\c2cccc3ccccc23)C1=O`, the inhibition was found to be 32%.

Regarding `COc1ccc(/C=C2\SC(=O)N(CC(N)=O)C2=O)cc1`, the inhibition was determined as 0%.

Turning to `NC(=O)CN1C(=O)S/C(=C\c2ccc(Oc3ccccc3)cc2)C1=O`, the inhibition is 0%.

Take `COc1ccc(/C=C2\SC(=O)N(CC(N)=O)C2=O)cc1O`: the inhibition came out at 0%.

For another data set the target is unchanged. Put plainly: Inhibition of bovine lens ALR2 at 25 uM assessed as reduction of D,L-glyceraldehyde by spectrophotometry. Particulars: Lens of camera-type eye.
In the case of `O=C(CN1C(=O)S/C(=C\c2ccc3ccccc3c2)C1=O)NO`, the inhibition amounted to 39%.

System in another data set: not listed separately
Put plainly: Dissociation constant, pKa of the compound.
Conditions: not given
It is filed as physicochemical.
For `O=C1NC(=O)[C@@]2(CCOc3ccc(F)cc32)N1` [SORBINIL], the pKa was 8.

The next data set deals with Aldose reductase (Bos taurus). Put plainly: Inhibition of ALR2.
Conditions: not given
`O=C(O)CN1C(=O)S/C(=C\c2ccc(O)cc2)C1=O` returned an IC50 of 0.15 µM.

Values taken from ChEMBL document CHEMBL1150408, “Synthesis, induced-fit docking investigations, and in vitro aldose reductase inhibitory activity of non-carboxylic acid containing 2,4-thiazolidinedione derivatives” (Bioorg Med Chem, 2008).
